# Patent publication US20260345619A1 (Principia Biopharma Inc., priority 2023, published 2026)
# Assay: Loss of asthma control (LOAC) events, 12-week ICS/LABA withdrawal study
# Type: in vivo, human
# Description: The general construct of this 12-week Loss of Asthma Control (LOAC) study consisted of a 4-week standardized ICS/LABA background therapy stabilization phase, a 4or 5-week background therapy withdrawal phase and a 3- or 4-week no background therapy phase, followed by a 4-week post IMP treatment safety follow-up period at the beginning of which, pre-screening asthma controller medications are restarted. Participants had access to short-acting β-agonist (SABA) reliever medication at all times during the protocol.
# The primary endpoint was the proportion of patients with LOAC. The key secondary endpoint for the study was change in pre-bronchodilator FEV1 from baseline at EOT.
# The primary endpoint was proportion of participants with LOAC during the 12-week treatment period.
# Note that if the number of participants in some regions was too low, these regions may have been pooled with other regions. This strategy also applied to all the rest of the analyses where region was one of the covariates.
# To assess the consistency in treatment effects across different subgroup levels, subgroup analyses were to be performed for the primary efficacy endpoint with respect to age group, gender, region, and other factors.
# Secondary endpoints included pre-bronchodilator FEV1 change from baseline at EOT, ACQ-5 score change from baseline, and AQLQ score change from baseline. Other secondary and exploratory endpoints are described in Table 2.
# [1] = 400 mg BID cohort, Latin America, n = 25
# [2] = 400 mg BID cohort, N = 32, mITT
# [3] = 400 mg BID cohort, age <45 years, n = 12
# [4] = 400 mg BID cohort, age ≥45 years, n = 20
# [5] = 400 mg BID cohort, baseline BMI <25 kg/m^2, n = 8
# [6] = 400 mg BID cohort, baseline BMI ≥25-<30 kg/m^2, n = 16
# [7] = 400 mg BID cohort, baseline BMI ≥30 kg/m^2, n = 8
# [8] = 400 mg BID cohort, baseline weight ≥60-<90 kg, n = 23
# [9] = 400 mg BID cohort, female, n = 18
# [10] = 400 mg BID cohort, male, n = 14
# [11] = 400 mg BID, N=32, 12 weeks, mITT
# [12] = 400 mg BID, 1 exacerbation within 2 years
# [13] = 400 mg BID, 2 exacerbations within 2 years
# [14] = 400 mg BID, >2 exacerbations within 2 years
# [15] = 400 mg BID, FEV1 reversibility <12 %
# [16] = 400 mg BID, FEV1 reversibility ≥12 %
# [17] = 400 mg BID, age at onset <12 years
# [18] = 400 mg BID, age at onset <18 years
# [19] = 400 mg BID, age at onset ≥12-<18 years
# [20] = 400 mg BID, age at onset ≥18-<40 years
compound,measurement,setting,value
"CC(C)(C=C(C#N)C(=O)N1CCC[C@@H](n2nc(-c3ccc(Oc4ccccc4)cc3F)c3c(N)ncnc32)C1)N1CCN(C2COC2)CC1 (mixture of isomers) [rilzabrutinib, (R)-2-[3-[4-amino-3-(2-fluoro-4-phenoxy-phenyl)pyrazolo[3,4-d]pyrimidin-1-yl]piperidine-1-carbonyl]-4-methyl-4-[4-(oxetan-3-yl)piperazin-1-yl]pent-2-enenitrile]","LOAC incidence, number of participants","400 mg BID cohort, APAC, n = 2",2
same,"LOAC incidence, percentage","400 mg BID cohort, APAC, n = 2",(100)
same,"LOAC incidence, number of participants","400 mg BID cohort, Eastern Europe, n = 3",1
same,LOAC OR vs. placebo,"400 mg BID cohort, Eastern Europe, 95% CI (0.023, 11.088)",0.500
same,LOAC RD vs. placebo,"400 mg BID cohort, Eastern Europe, 95% CI (−0.891, 0.558)",−0.167
same,"LOAC incidence, number of participants",[1],9
same,"LOAC incidence, percentage",[1],(36.0)
same,LOAC OR vs. placebo,"400 mg BID cohort, Latin America, 95% CI (0.230, 2.230)",0.716
same,LOAC RD vs. placebo,"400 mg BID cohort, Latin America, 95% CI (−0.351, 0.191)",−0.080
same,"Intervention discontinuation due to lack of efficacy or an AE related to asthma worsening, number",[2],0
same,Number of participants requiring hospitalization or emergency room visit,[2],0
same,Number of participants with LOAC: No,[2],20
same,Number of participants with LOAC: Yes,[2],12
same,Number of participants with increase in ICS ≥4 times the last prescribed ICS dose (or ≥50% of the prescribed ICS dose at baseline if background therapy withdrawal completed),[2],1
same,Number of participants with ≥6 additional reliever puffs of salbutamol/albuterol or levosalbutamol/levalbuterol in a 24 hour period (compared with baseline) on 2 consecutive days,[2],2
same,Number of participants with ≥30% reduction from baseline in AM PEF on 2 consecutive days,[2],6
same,"Participants with LOAC not triggered by use of rescue medication, number",[2],6
same,"Participants with LOAC not triggered by use of rescue medication, percentage",[2],(18.8)
same,"Participants with LOAC triggered by use of rescue medication, number",[2],6
same,"Participants with LOAC triggered by use of rescue medication, percentage",[2],(18.8)
same,Percentage of participants with LOAC: No,[2],(62.5)
same,Percentage of participants with LOAC: Yes,[2],(37.5)
same,Percentage of participants with increase in ICS ≥4 times the last prescribed ICS dose (or ≥50% of the prescribed ICS dose at baseline if background therapy withdrawal completed),[2],(3.1)
same,Percentage of participants with ≥6 additional reliever puffs of salbutamol/albuterol or levosalbutamol/levalbuterol in a 24 hour period (compared with baseline) on 2 consecutive days,[2],(6.3)
same,Percentage of participants with ≥30% reduction from baseline in AM PEF on 2 consecutive days,[2],(18.8)
same,"LOAC incidence, number of participants","400 mg BID cohort, Western Countries, n = 2",0
same,"LOAC incidence, number of participants",[3],6
same,"LOAC incidence, percentage",[3],(50.0)
same,LOAC OR vs. placebo,"400 mg BID cohort, age <45 years, 95% CI (0.342, 18.129)",2.489
same,LOAC RD vs. placebo,"400 mg BID cohort, age <45 years, 95% CI (−0.266, 0.634)",0.184
same,"LOAC incidence, number of participants",[4],6
same,"LOAC incidence, percentage",[4],(30.0)
same,LOAC OR vs. placebo,"400 mg BID cohort, age ≥45 years, 95% CI (0.069, 1.023)",0.266
same,LOAC RD vs. placebo,"400 mg BID cohort, age ≥45 years, 95% CI (−0.583, −0.007)",−0.295
same,"LOAC incidence, number of participants",[5],3
same,"LOAC incidence, percentage",[5],(37.5)
same,LOAC OR vs. placebo,"400 mg BID cohort, baseline BMI <25 kg/m^2, 95% CI (0.033, 2.763)",0.300
same,LOAC RD vs. placebo,"400 mg BID cohort, baseline BMI <25 kg/m^2, 95% CI (−0.796, 0.213)",−0.292
same,"LOAC incidence, number of participants",[6],6
same,"LOAC incidence, percentage",[6],(37.5)
same,LOAC OR vs. placebo,"400 mg BID cohort, baseline BMI ≥25-<30 kg/m^2, 95% CI (0.168, 2.709)",0.675
same,LOAC RD vs. placebo,"400 mg BID cohort, baseline BMI ≥25-<30 kg/m^2, 95% CI (−0.431, 0.240)",−0.096
same,"LOAC incidence, number of participants",[7],3
same,"LOAC incidence, percentage",[7],(37.5)
same,LOAC OR vs. placebo,"400 mg BID cohort, baseline BMI ≥30 kg/m^2, 95% CI (0.107, 5.238)",0.750
same,LOAC RD vs. placebo,"400 mg BID cohort, baseline BMI ≥30 kg/m^2, 95% CI (−0.536, 0.397)",−0.069
same,"LOAC incidence, number of participants","400 mg BID cohort, baseline weight <60 kg, n = 3",0
same,"LOAC incidence, number of participants",[8],10
same,"LOAC incidence, percentage",[8],(43.5)
same,LOAC OR vs. placebo,"400 mg BID cohort, baseline weight ≥60-<90 kg, 95% CI (0.366, 3.640)",1.154
same,LOAC RD vs. placebo,"400 mg BID cohort, baseline weight ≥60-<90 kg, 95% CI (−0.244, 0.314)",0.035
same,"LOAC incidence, number of participants","400 mg BID cohort, baseline weight ≥90 kg, n = 6",2
same,LOAC OR vs. placebo,"400 mg BID cohort, baseline weight ≥90 kg, 95% CI (0.013, 4.729)",0.250
same,LOAC RD vs. placebo,"400 mg BID cohort, baseline weight ≥90 kg, 95% CI (−0.987, 0.320)",−0.333
same,"LOAC incidence, number of participants",[9],7
same,"LOAC incidence, percentage",[9],(38.9)
same,LOAC OR vs. placebo,"400 mg BID cohort, female, 95% CI (0.076, 1.263)",0.311
same,LOAC RD vs. placebo,"400 mg BID cohort, female, 95% CI (−0.560, 0.045)",−0.258
same,"LOAC incidence, number of participants",[10],5
same,"LOAC incidence, percentage",[10],(35.7)
same,LOAC OR vs. placebo,"400 mg BID cohort, male, 95% CI (0.173, 24.590)",2.062
same,LOAC RD vs. placebo,"400 mg BID cohort, male, 95% CI (−0.420, 0.931)",0.256
same,"participants without LOAC, number",[11],20
same,"participants without LOAC, percent",[11],(62.5)
same,"participants with LOAC, number","400 mg BID, N=32, 12 weeks, mITT, placebo 16",12
same,"RRR vs. placebo (%), LOAC","400 mg BID, mITT",24.4%
same,"RR vs. placebo, LOAC","400 mg BID, mITT, 95% CI 0.433, 1.319",0.756
same,"RD (risk difference) vs. placebo, LOAC","400 mg BID, mITT, 95% CI −0.361, 0.115",−0.123
same,OR vs. placebo,[12],1.218
same,RD vs. Placebo,[12],0.059
same,"LOAC, number",[13],4
same,OR vs. placebo,[13],0.471
same,RD vs. Placebo,[13],−0.199
same,"LOAC, number",[14],3
same,OR vs. placebo,[14],0.508
same,OR vs. placebo,[15],0.611
same,RD vs. Placebo,[15],−0.119
same,"LOAC, number",[16],6
same,OR vs. placebo,[16],0.533
same,RD vs. Placebo,[16],−0.156
same,"LOAC, number",[17],4
same,OR vs. placebo,[17],2.000
same,RD vs. Placebo,[17],0.159
same,OR vs. placebo,[18],1.402
same,RD vs. Placebo,[18],0.126
same,"LOAC, number",[19],1
same,OR vs. placebo,[19],0.250
same,RD vs. Placebo,[19],−0.300
same,"LOAC, number",[20],4
same,OR vs. placebo,[20],0.267
